In patent publication US20140228274A1, “Liquid Detergent Composition” (priority 2011, published 2014):

What was measured:
[1] = target: T1, Savinase 16L (subtilisin) (Lederbergia lenta, UniProt P29600); experiment: Storage stability in liquid detergent: residual protease activity (hydrolysis of N,N-dimethylcasein at 40° C., pH 8.3); assay type: biochemical; settings: for Residual protease activity, 4 weeks at 35° C. (% of initial activity): inhibitor dosage 'yes'
T1 construct: purchased Novozymes Savinase 16L
T1 sequence (P29600 1-269): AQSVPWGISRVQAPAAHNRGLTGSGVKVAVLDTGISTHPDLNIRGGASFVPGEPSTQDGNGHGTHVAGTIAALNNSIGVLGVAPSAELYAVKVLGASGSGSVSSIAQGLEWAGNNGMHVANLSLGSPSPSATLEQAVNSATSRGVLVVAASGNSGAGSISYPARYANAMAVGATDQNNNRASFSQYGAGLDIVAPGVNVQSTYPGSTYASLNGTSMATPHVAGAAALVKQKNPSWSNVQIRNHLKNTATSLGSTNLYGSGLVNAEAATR
Procedure: (§1) General experimental details: Detergents containing Savinase 16L and either X—B^1—B^0—H or X—B^1—NH—CHR—CHOH—SO3Na; or Savinase 16L; are placed in closed glasses at −18° C.; 35° C. and 40° C. Residual activities of protease and lipase are measured after different times using standard analytical methods (protease by hydrolysis of N,N-dimethylcasein at 40° C., pH 8.3 and lipase by hydrolysis of pNp-valerate at 40° C., pH 7.7). The inhibitor and protease may also be added individually to the detergent.
(§2) As an example of liquid detergents with a stabilized subtilisin formulation, the compositions described in Table 1 were made.
(§3) As another example of detergents with a stabilized subtilisin formulation, the compositions described in Table 3 were made.

Lipex 100L (lipase) = experiment: Storage stability in liquid detergent: residual lipase activity (hydrolysis of pNp-valerate at 40° C., pH 7.7); assay type: biochemical
Procedure: as §1, §2, §3

[2] = Detergent B, 2% Na formate alone, no inhibitor
[3] = Detergent A, no Na formate, inhibitor 21 ppm (peptide aldehydes) or 26 ppm (hydrosulfite adduct) in detergent
[4] = Detergent B, 2% Na formate, inhibitor 21 ppm (peptide aldehydes) or 26 ppm (hydrosulfite adduct) in detergent

Row | Compound | Residual protease activity, 2 weeks at 40° C. (% of initial activity) [1, 2] [%] | Residual lipase activity, 2 weeks at 35° C. (% of initial activity) (Lipex 100L (lipase); [2]) [%] | Residual protease activity, 2 weeks at 40° C. (% of initial activity) [1, 3] [%] | Residual protease activity, 2 weeks at 40° C. (% of initial activity) [1, 4] [%] | Residual protease activity, 4 weeks at 35° C. (% of initial activity) ([1]; Detergent E (12% LAS, pH 8.4), no Na formate) [%] | Residual protease activity, 4 weeks at 35° C. (% of initial activity) ([1]; Detergent F (12% LAS, pH 8.4), 2% Na formate) [%] | Residual lipase activity, 2 weeks at 35° C. (% of initial activity) (Lipex 100L (lipase); [3]) [%] | Residual lipase activity, 2 weeks at 35° C. (% of initial activity) (Lipex 100L (lipase); [4]) [%] | Residual lipase activity, 2 weeks at 35° C. (% of initial activity) (Lipex 100L (lipase); Detergent E (12% LAS, pH 8.4), no Na formate, inhibitor dosage 'yes') [%] | Residual lipase activity, 2 weeks at 35° C. (% of initial activity) (Lipex 100L (lipase); Detergent F (12% LAS, pH 8.4), 2% Na formate, inhibitor dosage 'yes') [%]
1 | O=C[O-].[Na+] [Na formate, sodium formate] | 1 | 3 |  |  |  |  |  |  |  | 
2 | Cbz-GAY-H |  |  | 5 | 71 | 43 | 88 | 16 | 32 | 14 | 27
3 | Cbz-VAL-H |  |  | 2 | 49 |  |  | 13 | 30 |  | 
